Tests used:
[1] = target: C-X-C chemokine receptor type 4 (Homo sapiens, UniProt P61073); experiment: Antagonist activity at human wild type CXCR4 expressed in COS7 cells coexpressing G protein Gqi4myr assessed as inhibition of CXCL12-induced phosphatidylinositol turnover; type: functional, cell-based, COS-7
[2] = system: C-X-C chemokine receptor type 4 (Homo sapiens), P61073 [H113A]; experiment: (§1) Antagonist activity at human CXCR4 H113A mutant expressed in COS7 cells coexpressing G protein Gqi4myr assessed as inhibition of CXCL12-induced phosphatidylinositol turnover; type: functional, cell-based; settings: COS-7
[3] = target: C-X-C chemokine receptor type 4 (Homo sapiens, UniProt P61073, H113A); experiment: as §1; type: functional, cell-based, COS-7
[4] = system: C-X-C chemokine receptor type 4 (Homo sapiens), P61073 [L120F]; experiment: (§2) Antagonist activity at human CXCR4 L120F mutant expressed in COS7 cells coexpressing G protein Gqi4myr assessed as inhibition of CXCL12-induced phosphatidylinositol turnover; type: functional, cell-based; settings: COS-7
[5] = target: C-X-C chemokine receptor type 4 (Homo sapiens, UniProt P61073, L120F); experiment: as §2; type: functional, cell-based, COS-7
[6] = system: C-X-C chemokine receptor type 4 (Homo sapiens), P61073 [D171N]; experiment: (§3) Antagonist activity at human CXCR4 D171N mutant expressed in COS7 cells coexpressing G protein Gqi4myr assessed as inhibition of CXCL12-induced phosphatidylinositol turnover; type: functional, cell-based; settings: COS-7
[7] = target: C-X-C chemokine receptor type 4 (Homo sapiens, UniProt P61073, D171N); experiment: as §3; type: functional, cell-based, COS-7
[8] = system: C-X-C chemokine receptor type 4 (Homo sapiens), P61073 [F172A]; experiment: (§4) Antagonist activity at human CXCR4 F172A mutant expressed in COS7 cells coexpressing G protein Gqi4myr assessed as inhibition of CXCL12-induced phosphatidylinositol turnover; type: functional, cell-based; settings: COS-7
C-X-C chemokine receptor type 4 (Homo sapiens), P61073 [F172A], sequence (P61073 whole entry F172A): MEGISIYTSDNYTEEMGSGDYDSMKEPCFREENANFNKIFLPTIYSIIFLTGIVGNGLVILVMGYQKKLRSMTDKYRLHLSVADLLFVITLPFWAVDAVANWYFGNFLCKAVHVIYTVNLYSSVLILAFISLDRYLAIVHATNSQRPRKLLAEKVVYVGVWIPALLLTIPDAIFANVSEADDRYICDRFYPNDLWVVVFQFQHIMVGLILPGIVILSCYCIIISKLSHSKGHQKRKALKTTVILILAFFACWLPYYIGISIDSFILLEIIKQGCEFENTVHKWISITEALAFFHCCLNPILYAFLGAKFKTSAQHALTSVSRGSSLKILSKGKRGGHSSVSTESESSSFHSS

[9] = target: C-X-C chemokine receptor type 4 (Homo sapiens, UniProt P61073, F172A); experiment: as §4; type: functional, cell-based, COS-7
C-X-C chemokine receptor type 4 (Homo sapiens, UniProt P61073, F172A), sequence (P61073 whole entry F172A): as above

[10] = system: C-X-C chemokine receptor type 4 (Homo sapiens), P61073 [A175F]; experiment: (§5) Antagonist activity at human CXCR4 A175F mutant expressed in COS7 cells coexpressing G protein Gqi4myr assessed as inhibition of CXCL12-induced phosphatidylinositol turnover; type: functional, cell-based; settings: COS-7
[11] = target: C-X-C chemokine receptor type 4 (Homo sapiens, UniProt P61073, A175F); experiment: as §5; type: functional, cell-based, COS-7
[12] = system: C-X-C chemokine receptor type 4 (Homo sapiens), P61073 [V196A]; experiment: (§6) Antagonist activity at human CXCR4 V196A mutant expressed in COS7 cells coexpressing G protein Gqi4myr assessed as inhibition of CXCL12-induced phosphatidylinositol turnover; type: functional, cell-based; settings: COS-7
C-X-C chemokine receptor type 4 (Homo sapiens), P61073 [V196A], sequence (P61073 whole entry V196A): as the sequence (P61073 whole entry F172A) above, with A172F, V196A counted along it

[13] = target: C-X-C chemokine receptor type 4 (Homo sapiens, UniProt P61073, V196A); experiment: as §6; type: functional, cell-based, COS-7
C-X-C chemokine receptor type 4 (Homo sapiens, UniProt P61073, V196A), sequence (P61073 whole entry V196A): as the sequence (P61073 whole entry F172A) above, with A172F, V196A counted along it

[14] = system: C-X-C chemokine receptor type 4 (Homo sapiens), P61073 [Q200W]; experiment: (§7) Antagonist activity at human CXCR4 Q200W mutant expressed in COS7 cells coexpressing G protein Gqi4myr assessed as inhibition of CXCL12-induced phosphatidylinositol turnover; type: functional, cell-based; settings: COS-7
[15] = target: C-X-C chemokine receptor type 4 (Homo sapiens, UniProt P61073, Q200W); experiment: as §7; type: functional, cell-based, COS-7
[16] = system: C-X-C chemokine receptor type 4 (Homo sapiens), P61073 [Q200A]; experiment: (§8) Antagonist activity at human CXCR4 Q200A mutant expressed in COS7 cells coexpressing G protein Gqi4myr assessed as inhibition of CXCL12-induced phosphatidylinositol turnover; type: functional, cell-based; settings: COS-7
[17] = target: C-X-C chemokine receptor type 4 (Homo sapiens, UniProt P61073, Q200A); experiment: as §8; type: functional, cell-based, COS-7
[18] = system: C-X-C chemokine receptor type 4 (Homo sapiens), P61073 [H203A]; experiment: (§9) Antagonist activity at human CXCR4 H203A mutant expressed in COS7 cells coexpressing G protein Gqi4myr assessed as inhibition of CXCL12-induced phosphatidylinositol turnover; type: functional, cell-based; settings: COS-7
[19] = target: C-X-C chemokine receptor type 4 (Homo sapiens, UniProt P61073, H203A); experiment: as §9; type: functional, cell-based, COS-7
[20] = system: C-X-C chemokine receptor type 4 (Homo sapiens), P61073 [Y255A]; experiment: (§10) Antagonist activity at human CXCR4 Y255A mutant expressed in COS7 cells coexpressing G protein Gqi4myr assessed as inhibition of CXCL12-induced phosphatidylinositol turnover; type: functional, cell-based; settings: COS-7
[21] = target: C-X-C chemokine receptor type 4 (Homo sapiens, UniProt P61073, Y255A); experiment: as §10; type: functional, cell-based, COS-7
[22] = system: C-X-C chemokine receptor type 4 (Homo sapiens), P61073 [I259A]; experiment: (§11) Antagonist activity at transmembrane domain 6 of human CXCR4 I259A mutant expressed in COS7 cells coexpressing G protein Gqi4myr assessed as inhibition of CXCL12-induced phosphatidylinositol turnover; type: functional, cell-based; settings: COS-7
C-X-C chemokine receptor type 4 (Homo sapiens), P61073 [I259A], sequence (P61073 whole entry I259A, the tested form may be a part): as the sequence (P61073 whole entry F172A) above, with A172F, I259A counted along it

[23] = target: C-X-C chemokine receptor type 4 (Homo sapiens, UniProt P61073, I259A); experiment: as §11; type: functional, cell-based, COS-7
C-X-C chemokine receptor type 4 (Homo sapiens, UniProt P61073, I259A), sequence (P61073 whole entry I259A): as the sequence (P61073 whole entry F172A) above, with A172F, I259A counted along it

[24] = system: C-X-C chemokine receptor type 4 (Homo sapiens), P61073 [I259W]; experiment: (§12) Antagonist activity at human CXCR4 I259W mutant expressed in COS7 cells coexpressing G protein Gqi4myr assessed as inhibition of CXCL12-induced phosphatidylinositol turnover; type: functional, cell-based; settings: COS-7
[25] = target: C-X-C chemokine receptor type 4 (Homo sapiens, UniProt P61073, I259W); experiment: as §12; type: functional, cell-based, COS-7
[26] = system: C-X-C chemokine receptor type 4 (Homo sapiens), P61073 [D262N]; experiment: (§13) Antagonist activity at human CXCR4 D262N mutant expressed in COS7 cells coexpressing G protein Gqi4myr assessed as inhibition of CXCL12-induced phosphatidylinositol turnover; type: functional, cell-based; settings: COS-7
C-X-C chemokine receptor type 4 (Homo sapiens), P61073 [D262N], sequence (P61073 whole entry D262N): as the sequence (P61073 whole entry F172A) above, with A172F, D262N counted along it

[27] = target: C-X-C chemokine receptor type 4 (Homo sapiens, UniProt P61073, D262N); experiment: as §13; type: functional, cell-based, COS-7
C-X-C chemokine receptor type 4 (Homo sapiens, UniProt P61073, D262N), sequence (P61073 whole entry D262N): as the sequence (P61073 whole entry F172A) above, with A172F, D262N counted along it

[28] = system: C-X-C chemokine receptor type 4 (Homo sapiens), P61073 [H281A]; experiment: (§14) Antagonist activity at human CXCR4 H281A mutant expressed in COS7 cells coexpressing G protein Gqi4myr assessed as inhibition of CXCL12-induced phosphatidylinositol turnover; type: functional, cell-based; settings: COS-7
C-X-C chemokine receptor type 4 (Homo sapiens), P61073 [H281A], sequence (P61073 whole entry H281A): as the sequence (P61073 whole entry F172A) above, with A172F, H281A counted along it

[29] = target: C-X-C chemokine receptor type 4 (Homo sapiens, UniProt P61073, H281A); experiment: as §14; type: functional, cell-based, COS-7
C-X-C chemokine receptor type 4 (Homo sapiens, UniProt P61073, H281A), sequence (P61073 whole entry H281A): as the sequence (P61073 whole entry F172A) above, with A172F, H281A counted along it

[30] = system: C-X-C chemokine receptor type 4 (Homo sapiens), P61073 [I284A]; experiment: (§15) Antagonist activity at human CXCR4 I284A mutant expressed in COS7 cells coexpressing G protein Gqi4myr assessed as inhibition of CXCL12-induced phosphatidylinositol turnover; type: functional, cell-based; settings: COS-7
[31] = target: C-X-C chemokine receptor type 4 (Homo sapiens, UniProt P61073, I284A); experiment: as §15; type: functional, cell-based, COS-7
[32] = system: C-X-C chemokine receptor type 4 (Homo sapiens), P61073 [T287A]; experiment: (§16) Antagonist activity at human CXCR4 T287A mutant expressed in COS7 cells coexpressing G protein Gqi4myr assessed as inhibition of CXCL12-induced phosphatidylinositol turnover; type: functional, cell-based; settings: COS-7
[33] = target: C-X-C chemokine receptor type 4 (Homo sapiens, UniProt P61073, T287A); experiment: as §16; type: functional, cell-based, COS-7
[34] = system: C-X-C chemokine receptor type 4 (Homo sapiens), P61073 [E288A]; experiment: (§17) Antagonist activity at human CXCR4 E288A mutant expressed in COS7 cells coexpressing G protein Gqi4myr assessed as inhibition of CXCL12-induced phosphatidylinositol turnover; type: functional, cell-based; settings: COS-7
C-X-C chemokine receptor type 4 (Homo sapiens), P61073 [E288A], sequence (P61073 whole entry E288A): as the sequence (P61073 whole entry F172A) above, with A172F, E288A counted along it

[35] = target: C-X-C chemokine receptor type 4 (Homo sapiens, UniProt P61073, E288A); experiment: as §17; type: functional, cell-based, COS-7
C-X-C chemokine receptor type 4 (Homo sapiens, UniProt P61073, E288A), sequence (P61073 whole entry E288A): as the sequence (P61073 whole entry F172A) above, with A172F, E288A counted along it

C-X-C chemokine receptor type 4 (Homo sapiens, UniProt P61073), sequence (P61073 whole entry): as the sequence (P61073 whole entry F172A) above, with A172F counted along it

A Ki [1] of 20 µM, a logIC50 ([1]; COS-7) of -4.69 and a logIC50 [2] of -3.56 were found for `Cc1ccc(CN2CCCNCCNCCCNCC2)cc1` in this work. For the same compound, the Ki [3] was 275 µM, the logIC50 [4] was -4.87 and the Ki [5] was 13 µM. For the same compound, the logIC50 [6] was -3.97, the Ki [7] was 107 µM and the logIC50 [8] was -4.82. For the same compound, the Ki [9] was 15 µM, the logIC50 [10] was -2.65 and the Ki [11] was 2240 µM. The logIC50 [12] was -4.56, the Ki [13] was 28 µM and the logIC50 [14] was -4.22. The Ki [15] was 60 µM, the logIC50 [16] was -4.1 and the Ki [17] was 80 µM. For the same compound, the logIC50 [18] was -4.5, the Ki [19] was 32 µM and the logIC50 [20] was -4.43. It also gave a Ki [21] of 37 µM, a logIC50 [22] of -5.6 and a Ki [23] of 2.5 µM. The logIC50 [24] was -4.62, the Ki [25] was 24 µM and the logIC50 [26] was -5.54. It also gave a Ki [27] of 2.9 µM, a logIC50 [28] of -4.66 and a Ki [29] of 22 µM. For the same compound, the logIC50 [30] was -5.64, the Ki [31] was 2.3 µM and the logIC50 [32] was -5.49. It also gave a Ki [33] of 3.3 µM, a logIC50 [34] of -3.52 and a Ki [35] of 303 µM.

— ChEMBL document CHEMBL1156482, “Molecular mechanism of action of monocyclam versus bicyclam non-peptide antagonists in the CXCR4 chemokine receptor” (J Biol Chem, 2007)
